# Target: G protein-coupled receptor 88 (GPR88) (Homo sapiens, UniProt Q9GZN0)
# Test: GPR88 functional assay: EC50 of Table 2 (GTPγS assay and cAMP HTRF assay described; table does not say which)
# Assay type: cell-based
# Conditions: class symbol; read-out: Range (EC50)
# Description: 96 well GTPγS assay plates were purchased from Perkin Elmer. Wheat Germ Agglutinin PVT SPA beads and ^35S-GTPγS were purchased from Amersham GDP, GTPγS and all buffer reagents were from Sigma. 384 well white NBS plates were purchased from corning. Pertussis toxin was purchased from Calbiochem. All cell culture reagents were purchased from Invitrogen. Forskolin was purchased from Sigma. The cAMP HTRF kit was purchased fron Cisbio International.
# The GTPγS assay buffer consisted of 10 mM MgCl2, 180 mM NaCl, 200 uM GDP, 0.167 mg/mL DTT, 1 mM EGTA and 20 mM HEPES pH7.4. This buffer was used for dilution of membranes, beads, and ^35S GTPγS components. To each well of the 96 well assay plate 48 ul assay buffer, 2 ul of 100× compound, 50 ul membrane solution (0.2 ug/ul), 50 ul ^35S GTPγS solution (0.8 nM) and 50 ul of SPA beads (10 mg/mL). Non-specific binding was determined by the addition of cold GTPγS to control wells. The plates were sealed with clear sealing tape and incubated at room temperature for 1 hour. GTPγS activity was detected using a Wallac Micro-Beta Trilux liquid scintillation counter. Non-specific binding was determined using 10 uM cold GTPγS.
# The cAMP HTRF assay is modified from the Cisbio International kit procedure 62AM4PEJ. Assay plates were prepared by stamping 0.1 ul of 100× compound stock solutions diluted in DMSO or DMSO alone into 384 well NBS plates. The cAMP HTRF assay was performed using cells in suspension. The cAMP HTRF assay buffer consisted of Hank's Balanced Salt Solution (HBSS), 2 mM CaCl2, 5 mM MgCl2, 20 mM HEPES and 1 mM 3-isobutyl-1-methylxanthine (IBMX) (added fresh at the time of assay). For pertussis toxin treatment pertussis toxin (100 ng/mL) was added to culture medium for 16 hours prior to assay. Confluent cells were disrupted with cell dissociation buffer count cells then centrifuged at 1000×g for 5 minutes. The cell pellet was resuspended in assay buffer alone for basal cAMP measurements or with 0.75 uM forskolin (added immediately prior to addition to wells) for addition to all other wells. Using a Multidrop 384 (Lab systems) 10 ul of cell suspension was added to each well containing compound or DMSO. The plates were incubated at room temperature for 30 minutes covered. During this time the cAMP standard curve was prepared as per manufacturer's instruction. At the end of the incubation 10 ul of anti-cAMP cryptate and 10 ul cAMP-XL, diluted in manufacturer's lysis buffer, were added to each well. The plated were incubated at room temperature for 60 minutes covered then read on an Envision plate reader (Perkin Elmer) and the 665 nm/620 nm fluorescence ratio determined Fluorescence ratio values were converted to molar cAMP concentrations from the standard curve using the GraphPad Prism program.
# G protein-coupled receptor 88 (GPR88), sequence (Q9GZN0 whole entry, species assumed): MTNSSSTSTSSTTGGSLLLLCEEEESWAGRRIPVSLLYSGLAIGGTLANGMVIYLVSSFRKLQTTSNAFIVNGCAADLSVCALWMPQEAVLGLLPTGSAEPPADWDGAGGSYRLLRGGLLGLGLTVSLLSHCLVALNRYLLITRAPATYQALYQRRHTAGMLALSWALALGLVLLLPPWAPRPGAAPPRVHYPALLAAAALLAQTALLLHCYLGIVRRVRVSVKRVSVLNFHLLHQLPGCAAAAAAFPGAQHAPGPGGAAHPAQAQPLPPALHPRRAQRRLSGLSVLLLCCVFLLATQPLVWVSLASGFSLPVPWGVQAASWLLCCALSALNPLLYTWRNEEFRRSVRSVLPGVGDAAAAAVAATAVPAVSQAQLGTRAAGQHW
row,EC50 [nM],Structure (SMILES)
1,100 to 200,"CCCC(C)COc1ccc([C@H](CNC(=O)[C@@H](C)N)NC(=O)[C@@H](C)c2ccccc2)cc1 (stereo partly drawn) [Example 29, (2R)-2-Amino-N-((2R)-2-(4-(2-methylpentyloxy)phenyl)-2-((S)-2-phenylpropanamido)ethyl)propanamide]"
2,100 to 200,"CCCC(C)COc1ccc([C@H](CNC(=O)[C@@H](N)CC2CC2)NC(=O)[C@@H](C)c2ccccc2)cc1 (stereo partly drawn) [Example 28, (2S)-2-Amino-3-cyclopropyl-N-((2R)-2-(4-(2-methylpentyloxy)phenyl)-2-((S)-2-phenylpropanamido)ethyl)propanamide]"
3,100 to 200,"CCCC(C)COc1ccc([C@H](CNCc2c[nH]c3ccccc23)NC(=O)[C@@H](C)c2ccccc2)cc1 (stereo partly drawn) [Example 12, (2S)-N-((1R)-2-((1H-Indol-3-yl)methylamino)-1-(4-(2-methylpentyloxy)phenyl)ethyl)-2-phenylpropanamide]"

# The remaining lines, values behind:
row,Structure (SMILES),EC50 [nM]
1,"CC[C@H](C)COc1ccc([C@H](CN)NC(=O)[C@@H](C)c2ccccc2)cc1 [Example 37, (2S)-N-((1R)-2-Amino-1-[4-((S)-2-methylbutoxy)phenyl]-ethyl)-2-phenylpropionamide]",39 to 99
2,"CCCC(C)COc1ccc([C@H](CO)NC(=O)[C@@H](CO)c2ccccc2)cc1 (stereo partly drawn) [Example 3, (2R)-3-Hydroxy-N-((1R)-2-hydroxy-1-(4-(2-methylpentyloxy)phenyl)ethyl)-2-phenylpropanamide]",100 to 200
3,"CC[C@H](C)COc1ccc([C@@H](NC(=O)[C@@H](C)c2ccccc2)[C@@H](C)O)cc1 [Example 39, (S)-N-{(1R,2R)-2-Hydroxy-1-[4-((S)-2-methyl-butoxy)-phenyl]-propyl}-2-phenylpropionamide]",100 to 200

# Same assay, conditions: exact value given; read-out: Range (EC50)
row,EC50 [nM],Structure (SMILES)
1,154,"CCCC(C)COc1ccc([C@H](CNC[C@H]2CCCN2)NC(=O)[C@@H](C)c2ccccc2)cc1 (stereo partly drawn) [Example 18, (2S)-N-((1R)-1-(4-(2-Methylpentyloxy)phenyl)-2-((R)-pyrrolidin-2-ylmethylamino)ethyl)-2-phenylpropanamide]"
2,110,"CCCC(C)COc1ccc([C@H](CNCc2ccccn2)NC(=O)[C@@H](C)c2ccccc2)cc1 (stereo partly drawn) [Example 10, (2S)-N-((1R)-1-(4-(2-Methylpentyloxy)phenyl)-2-(pyridin-2-ylmethylamino)ethyl)-2-phenylpropanamide]"
3,54,"CCCC(C)COc1ccc([C@H](CN)NC(=O)[C@@H](C)c2ccccc2)cc1 (stereo partly drawn) [Example 5, (2S)-N-((1R)-2-Amino-1-(4-(2-methylpentyloxy)phenyl)ethyl)-2-phenylpropanamide]"

row,Structure (SMILES),EC50 [nM]
1,"CC(C)COc1ccc([C@@H](NC(=O)[C@@H](C)c2ccccc2)[C@H]2CCCN2)cc1 [Example 40, (S)-N-((R)-(4-Isobutoxyphenyl)((R)-pyrrolidin-2-yl)methyl)-2-phenylpropanamide]",254

# Source: patent publication US8304577B2, “Modulators of G protein-coupled receptor 88” (Bristol-Myers Squibb Company, priority 2009, dated 2012)
